TGI data for 10 compounds are collected here from PubChem BioAssay (NCI).

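The compound was tested at five concentrations on cells cultured in 96-well plates, with a 48-hour exposure period. TGI is the concentration that stops growth completely.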

Some test systems named below: 786-0 renal; UACC-257 melanoma; COLO 205 colon; SK-MEL-5 melanoma; SNB-75 CNS; HT29 colon; SN12C renal; LOX IMVI melanoma; OVCAR-8 ovarian; OVCAR-3 ovarian; SK-MEL-28 melanoma; SW-620 colon; MOLT-4 leukemia; NCI-H23 lung; MALME-3M melanoma; MDA-MB-435.
Assay in all cases: NCI tumour cell line growth inhibition, 48 h

For `CC1(c2cccc3c2C2(O)C=CC4(CCC32)OCCO4)OCCO1` (centres undefined), the TGI with 786-0 renal, in the assay on UACC-257 melanoma, with COLO 205 colon, in the assay with SK-MEL-5 melanoma, in the assay with SNB-75 CNS and in the assay on HT29 colon was greater than 100 µM each time. Further, the TGI in the assay with SN12C renal, with LOX IMVI melanoma, in the assay with OVCAR-8 ovarian, with OVCAR-3 ovarian, in the assay with SK-MEL-28 melanoma and in the assay on SW-620 colon was greater than 100 µM in each case. For the same compound, the TGI in the assay with MOLT-4 leukemia, with NCI-H23 lung and in the assay with MALME-3M melanoma was greater than 100 µM throughout.
Turning to `CCN(CC)CCNc1ccc2ncn3c4c(OC)ccc(OC)c4c(=O)c1c23`, the TGI was 70.9 µM in the assay with 786-0 renal; greater than 100 µM with UACC-257 melanoma; 20.4 µM in the assay with COLO 205 colon; 31.4 µM in the assay on SK-MEL-5 melanoma; 23.3 µM in the assay on SNB-75 CNS; 68.5 µM in the assay with OVCAR-8 ovarian. In addition, the TGI with OVCAR-3 ovarian is greater than 100 µM; with SK-MEL-28 melanoma, 39.2 µM; in the assay on SW-620 colon, 18.2 µM; with MOLT-4 leukemia it was 30.4 µM; in the assay with NCI-H23 lung, 75.5 µM; with MALME-3M melanoma, 41.8 µM.
`CCCCCCCC(=O)OC[C@@H](C[As](=O)(O)O)OC(=O)CCCCCCC`: the TGI in the assay with 786-0 renal is 24.7 µM; with UACC-257 melanoma, 35.6 µM; in the assay on COLO 205 colon, 34.3 µM; in the assay on SK-MEL-5 melanoma, 26.9 µM; in the assay with SNB-75 CNS, 29.5 µM; with HT29 colon, 28.1 µM. Besides, the TGI in the assay on SN12C renal worked out at 23.3 µM; in the assay on OVCAR-8 ovarian, 37.5 µM; with SK-MEL-28 melanoma, 26.6 µM; in the assay with SW-620 colon it was 25.9 µM; with MOLT-4 leukemia, 18.6 µM; in the assay on NCI-H23 lung, 26.4 µM. The compound also returned a TGI in the assay with MALME-3M melanoma of 28.5 µM.
On to `CCOC(=O)[C@@H]1C[C@H]1c1ccc(O)c(O)c1`, for which the TGI was greater than 100 µM in the assay on 786-0 renal; greater than 100 µM in the assay on UACC-257 melanoma; greater than 100 µM with COLO 205 colon; 31.3 µM in the assay with SK-MEL-5 melanoma; greater than 100 µM in the assay with HT29 colon; greater than 100 µM in the assay on SN12C renal. The TGI in the assay on OVCAR-8 ovarian, in the assay on OVCAR-3 ovarian, in the assay with SK-MEL-28 melanoma, in the assay on SW-620 colon, with MOLT-4 leukemia and with MDA-MB-435 was greater than 100 µM each time. Also, the TGI with NCI-H23 lung and in the assay with MALME-3M melanoma was greater than 100 µM each time.
On to `N#Cc1nc(CSCc2ccccc2)oc1N`, for which the TGI in the assay on 786-0 renal, in the assay with UACC-257 melanoma, in the assay on COLO 205 colon, in the assay on HT29 colon, in the assay on SN12C renal and in the assay with OVCAR-8 ovarian was greater than 100 µM each time. In addition, the TGI with OVCAR-3 ovarian, in the assay with SK-MEL-28 melanoma, in the assay with SW-620 colon, in the assay on MOLT-4 leukemia, in the assay with MDA-MB-435 and in the assay on NCI-H23 lung was greater than 100 µM each time. The same compound came in with a TGI in the assay with MALME-3M melanoma greater than 100 µM.
In the case of `CC1C2=C(CC(C)(C)CC2=O)NC2=C1C(=O)CC(C)(C)C2`, the TGI with 786-0 renal, in the assay on SK-MEL-5 melanoma, with SNB-75 CNS, with HT29 colon, with SN12C renal and with LOX IMVI melanoma was greater than 100 µM throughout. The TGI in the assay with OVCAR-8 ovarian, with OVCAR-3 ovarian, in the assay on SK-MEL-28 melanoma, with SW-620 colon, in the assay on MOLT-4 leukemia and in the assay with NCI-H23 lung was greater than 100 µM in each case.
As to `COC(=O)C1CC(=O)CCC1c1ccccc1` (centres undefined), the TGI with 786-0 renal, in the assay with UACC-257 melanoma, with COLO 205 colon, in the assay on SK-MEL-5 melanoma, in the assay with SNB-75 CNS and in the assay on HT29 colon was greater than 100 µM each time. The TGI in the assay with SN12C renal, in the assay with LOX IMVI melanoma, in the assay with OVCAR-8 ovarian, with OVCAR-3 ovarian, with SK-MEL-28 melanoma and in the assay on SW-620 colon was greater than 100 µM each time. The TGI in the assay on MOLT-4 leukemia, in the assay with NCI-H23 lung and with MALME-3M melanoma was greater than 100 µM in each case.
With `O=C1CSC(/C(=C/c2ccccc2)c2nc3ccccc3[nH]2)=N1`, the TGI in the assay on 786-0 renal was greater than 100 µM; in the assay with UACC-257 melanoma it was greater than 100 µM; in the assay with COLO 205 colon, greater than 100 µM; in the assay with SK-MEL-5 melanoma, 38.3 µM; in the assay on SNB-75 CNS, 50.7 µM; in the assay on HT29 colon it was greater than 100 µM. In addition, the TGI in the assay with SN12C renal, in the assay on LOX IMVI melanoma, in the assay on OVCAR-8 ovarian, in the assay on SK-MEL-28 melanoma, in the assay with SW-620 colon and in the assay on MOLT-4 leukemia was greater than 100 µM throughout. The TGI in the assay on NCI-H23 lung was 92.7 µM; in the assay on MALME-3M melanoma it was greater than 100 µM.
Turning to `CC1=CCC2(C#N)CCC1C2O` (centres undefined), the TGI in the assay with 786-0 renal, with UACC-257 melanoma, in the assay with COLO 205 colon, with SK-MEL-5 melanoma, with SNB-75 CNS and in the assay with HT29 colon was greater than 100 µM in each case. For the same compound, the TGI with SN12C renal, with LOX IMVI melanoma, in the assay on OVCAR-8 ovarian, with OVCAR-3 ovarian, in the assay on SK-MEL-28 melanoma and with MOLT-4 leukemia was greater than 100 µM in each case. Further, in the assay with MALME-3M melanoma, the TGI is greater than 100 µM.
As for `NC(=O)c1cc(-c2ccc(-n3ccnc3)cc2)n[nH]c1=O`, the TGI in the assay on 786-0 renal, with UACC-257 melanoma, with COLO 205 colon, with SK-MEL-5 melanoma, in the assay on SNB-75 CNS and with SN12C renal was greater than 100 µM in each case. Moreover, the TGI in the assay on OVCAR-8 ovarian, in the assay with SK-MEL-28 melanoma, in the assay on SW-620 colon, with MOLT-4 leukemia, in the assay on MDA-MB-435 and in the assay with NCI-H23 lung was greater than 100 µM each time. In addition, in the assay on MALME-3M melanoma, the TGI is greater than 100 µM.
